Experimental data taken from patent publication US20180362993A1, “ELICITOR-DERIVED PEPTIDES AND USE THEREOF” (Plant Health Care, Inc., priority 2017, published 2018).
Marks after values point to notes of the source that are not given here.

What was measured:
corn = experiment: Drought resistance in seed-coated corn; type: in vivo; settings: for % Change Dry Weight / % Change Fresh Weight: vs mock
Description: The effectiveness of peptide treatment in reducing the effects of drought stress was assessed in corn using a seed treatment strategy. This strategy largely mirrors example 2, except that the seeds were coated with a peptide formulation rather than a foliar spray application.
Seeds were first sieved using mesh screens to a uniform size (21-23/64 inches). The seeds were then coated with a mixture of peptide, Unicoat™ seed coat polymer, and a minimal volume of water in a Hege 11 Liquid Seed Treater (Wintersteiger) according to manufacturer recommendations. Seeds were coated with one of the following: (i) 0.12 μg peptide/seed, (ii) […], or (iii) a ‘mock’ treatment that included no peptide. The amount of peptide per seed assumes complete transfer of the peptide to seed surfaces in the seed coating chamber. Losses during coating were not considered.
(§1) 3.5 inch pots were filled (approximately 0.2 L per pot) with Sunshine #1 mix (SunGro Horticulture), fertilized with 14-14-14 N,P,K Osmocote (Everris), and mixed for 20 minutes using a soil mixer M-5. Seeds were planted at a depth of 0.5 inch for germination. The pots were immediately irrigated by submergence then drained after about an hour. For each treatment group, 24 replicate seeds were planted. Plants were grown in a greenhouse under 16 hour light days at ˜75° F. and 8 hour dark nights at ˜65° F. Prior to drought conditions, the plants were well-watered.
Three days after planting, the plants were randomized using a complete block design and subjected to a cyclic drought stress. Drought stress was imposed by withholding water for 2-3 days until the majority of plants were under medium to severe water stress. The severity of the stress was determined by the weight of the pot and visual determination of leaf curling. Once drought stress was attained, the pots were watered to full saturation. Full Saturation (100% pot capacity) is defined as the weight of the pot filled with water-saturated soil minus the weight of the filled pot prior to adding water. Drought stress was imposed for a total of 18 days.
(§2) At the end of the experiment (18 days after initiation of drought stress), the plant was then harvested for fresh and dry weights. Individual plants were cut near the soil surface and weighed immediately (fresh weight). The plants were then placed into labeled brown paper bags and dried in a 70° C. oven for 72 hours. A dry weight was then obtained.
The following calculation was performed on the collected data: Fresh weight at harvest and dry weight at harvest for the plants grown from peptide-treated seeds were expressed as a % change relative to the ‘mock’ treated plants.

soy = experiment: Drought resistance in seed-treated soy; type: in vivo; settings: for % Change Dry Weight / % Change Fresh Weight: vs mock; for Result in the seed treated drought study for soy, in words: soy seed treatment
Description: The effectiveness of peptide treatment in reducing drought stress was assessed in soy using a seed treatment strategy. This strategy largely mirrors examples 3 and 4.
Seeds were first sieved using mesh screens to a uniform size (14-17 mesh). The seeds were then coated with a mixture of peptide and Unicoat™ seed coat polymer in a Hege 11 Liquid Seed Treater (Wintersteiger) according to manufacturer recommendations. […]
as §1
Seven days after germination the heights of the plants were measured. This was determined as the distance between the soil surface and the shoot apical meristems (buds). The plants were randomized using a complete block design and subjected to a cyclic drought stress. Drought stress was imposed by withholding water for 3-4 days until the majority of plants were under medium to severe water stress. The severity of the stress was determined by the weight of the pot and visual determination of loss of turgor in the leaves (drooping). Once drought stress was attained, the pots were watered to full saturation. Full Saturation (100% pot capacity) is defined as the weight of the pot filled with water-saturated soil minus the weight of the filled pot prior to adding water. Drought stress was imposed for a total of 18 days.
as §2, with “the plant above the soil surface was then” for “the plant was then”, “then obtained. The following calculation was performed on the collected data: Fresh weight at harvest, and dry weight at harvest for the peptide-treated plants were expressed as a % change relative to the ‘mock’ treated plants.” for “then obtained.”

[1] = corn seed treatment 0.12 μg/seed
[2] = corn seed treatment 1.05 μg/seed

| Substance | % Change Dry Weight (corn; [1]) | % Change Fresh Weight (corn; [1]) | % Change Dry Weight (corn; [2]) | % Change Fresh Weight (corn; [2]) | % Change Dry Weight (soy; soy seed treatment 0.1 μg/seed) | % Change Fresh Weight (soy; soy seed treatment 0.1 μg/seed) | other results |
| --- | --- | --- | --- | --- | --- | --- | --- |
| AGQTSGMSPMEELMKIFADITQSLFGDQDG (P13-45 peptide) [Peptide P13-45] | 6.05* % | 8.54** % | – | – | – | – | % Change Dry Weight (soy; soy seed treatment 0.9 μg/seed): 3.17%; % Change Fresh Weight (soy; soy seed treatment 0.9 μg/seed): 3.6% |
| AGQTSGMSPMEQLMKLFADLTQSLFGDQDG (P13-30 peptide) [Peptide P13-30] | 3.01% | 6.19* % | 2.73% | 8.68** % | – | – | Drought tolerance activity in corn, result in words (corn; corn seed treatment): positive; Result in the seed treated drought study for soy, in words (soy): significant results; % Change Dry Weight (soy; soy seed treatment 0.9 μg/seed): 6.17%; % Change Fresh Weight (soy; soy seed treatment 0.9 μg/seed): 9.41* % |
| P13-48: P13 peptide variant tested in corn seed treatment, SEQ ID NO: 70; sequence not printed in the text (AGQTSGMSPEEQLMKIFADITQSLFGDQDG; P13-48 peptide) [Peptide P13-48] | – | – | −1.83% | −1.65% | – | – | – |
| P13-49: P13 peptide variant tested in corn seed treatment, SEQ ID NO: 71; sequence not printed in the text (AGQTSGMSPMEQEMKIFADITQSLFGDQDG; P13-49 peptide) [Peptide P13-49] | 0.79% | −4.24% | – | – | – | – | – |
| AGQTSGMSPMEQLMEIFADITQSLFGDQDGR (P13-20 peptide) [Peptide P13-20] | – | – | 3.23% | 6.87** % | −5.02% | −5.86** % | Drought tolerance activity in corn, result in words (corn; corn seed treatment): affords activity |
| AGQTSGLSPLEQLLKIFADITQSLFG (P13-23 peptide) [Peptide P13-23] | 0.94% | 4.89** % | 2.16% | 5.54** % | 6.43% | 5.08% | Drought tolerance activity in corn, result in words (corn; corn seed treatment): affords activity |
| AGQTSGMSPMEQLMKIFADITQSLFGDQ (P13-17 peptide) [Peptide P13-17] | – | – | 1.09% | 1.51% | 9.48** % | 8.02* % | Result in the seed treated drought study for soy, in words (soy): significant results |
| AGQTSGMSPMEQLMEIFADITQSLFGDQDGK (P13-22 peptide) [Peptide P13-22] | – | – | 1.66% | 3.41% | 4.36% | 4.91% | – |
| AGQTSGMSPMEQLMKILADITQSLLGDQDG (P13-33 peptide) [Peptide P13-33] | – | – | 2.59% | −1.28% | – | – | Drought tolerance activity in corn, result in words (corn; corn seed treatment): negative |
| AGQTSGMSPMEQLLKIFADITQSLFGDQDG (P13-39 peptide) [Peptide P13-39] | – | – | 3.10% | 5.09** % | 3.26% | 3.22% | – |
| AGQTSGMSPLEQLMKIFADITQSLFGDQDG (P13-40 peptide) [Peptide P13-40] | – | – | 0.76% | 5.86* % | 10.27** % | 12.53** % | Result in the seed treated drought study for soy, in words (soy): significant results |
| AGQTSGMSPMEQLMEIFADITQSLFGDQR (P13-57 peptide) [Peptide P13-57] | – | – | −0.68% | 1.90% | – | – | – |
| P13-54: P13 peptide variant tested in corn seed treatment, SEQ ID NO: 76; sequence not printed in the text (AGQTSGMSPMEQLMKIFADITQSEFGDQDG; P13-54 peptide) [Peptide P13-54] | −1.38% | −4.51* % | – | – | – | – | – |
| AGQTSGMSPMEQLMEIFADITQSLFGDR (P13-58 peptide) [Peptide P13-58] | 2.83% | −4.07% | – | – | – | – | – |
| AGQTSGMSPMEQLMEIFADITQSLFGDQDR (P13-56 peptide) [Peptide P13-56] | 0.44% | 1.91% | – | – | – | – | – |
| SEQEEEMEEMEQLMEIFEEIEQELFE (P13-28 peptide) [Peptide P13-28] | 8.52** % | 9.99** % | 6.04** % | 8.18** % | – | – | Drought tolerance activity in corn, result in words (corn; corn seed treatment): preservation of activity; Result in the seed treated drought study for soy, in words (soy): significant results; % Change Dry Weight (soy; soy seed treatment 0.9 μg/seed): 10.35** %; % Change Fresh Weight (soy; soy seed treatment 0.9 μg/seed): 14.35** % |
| AGQTSGMSPMEQLMKIFADITQSLFGDEDG (P13-44 peptide) [Peptide P13-44] | 2.73% | 7.76** % | 3.44% | 9.15** % | 10.93** % | 10.54** % | Result in the seed treated drought study for soy, in words (soy): significant results |
| LEELEELLEIFEEIEEELF (P13-35 peptide) [Peptide P13-35] | 5.68** % | 2.45% | – | – | 2.56% | 1.55% | Drought tolerance activity in corn, result in words (corn; corn seed treatment): preservation of activity |
| SQTSGMSPMEQLMEIFADITQSLF (P13-25 peptide) [Peptide P13-25] | – | – | 3.01% | 2.63% | – | – | – |
| SQEEEMEPMEQLMEIFEEIEQELFG (P13-26 peptide) [Peptide P13-26] | 4.74** % | 3.77* % | 5.92** % | 4.23* % | 3.40% | 2.04% | Drought tolerance activity in corn, result in words (corn; corn seed treatment): preservation of activity |
| P13-51: P13 peptide variant tested in corn seed treatment, SEQ ID NO: 73; sequence not printed in the text (AGQTSGMSPMEQLMKEFADITQSLFGDQDG; P13-51 peptide) [Peptide P13-51] | – | – | 0.64% | −4.70% | – | – | – |
| P13-53: P13 peptide variant tested in corn seed treatment, SEQ ID NO: 75; sequence not printed in the text (AGQTSGMSPMEQLMKIFADETQSLFGDQDG; P13-53 peptide) [Peptide P13-53] | 0.48% | −2.19% | – | – | – | – | – |
| P13-55: P13 peptide variant tested in corn seed treatment, SEQ ID NO: 77; sequence not printed in the text (AGQTSGMSPMEQLMKIFADITQSLEGDQDG; P13-55 peptide) [Peptide P13-55] | 0.81% | −3.84% | – | – | – | – | – |
| AGQTSGMSPMEQLMKIEADITQSLFGDQDG (P13-52 peptide) [Peptide P13-52] | – | – | 4.49** % | −5.08* % | – | – | Result for dry weight, in words (corn; corn seed treatment): positive |
| P13-47: P13 peptide variant tested in corn seed treatment, SEQ ID NO: 69; sequence not printed in the text (AGQTSGESPMEQLMKIFADITQSLFGDQDG; P13-47 peptide) [Peptide P13-47] | – | – | −1.34% | −3.42% | – | – | – |
| P13-50: P13 peptide variant tested in corn seed treatment, SEQ ID NO: 72; sequence not printed in the text (AGQTSGMSPMEQLEKIFADITQSLFGDQDG; P13-50 peptide) [Peptide P13-50] | 0.49% | −3.95% | – | – | – | – | – |
